This note sets out measurements from ChEMBL document CHEMBL1153619, “The role of phenolic hydroxy groups in the free radical scavenging activity of betalains” (J Nat Prod, 2009).

Data set [1] can be described thus: ABTS radical scavenging activity assessed as Trolox equivalent antioxidant capacity index at pH 7 by spectrophotometry. It counts as physicochemical.
Data set [2] in a line: Antioxidant activity assessed as Trolox molar equivalence for reduction of Fe(III) at pH 3.6 by ferric reducing antioxidant power assay. It counts as functional.

Structures are written as SMILES.

Consider `O=C(O)C1=C/C(=C\C=N/CCc2ccccc2)C[C@@H](C(=O)O)N1`, for which the Activity in data set [1] turned out to be 2.3; in data set [2], 1.1.

With `CCC/N=C\C=C1/C=C(C(=O)O)N[C@H](C(=O)O)C1`, the Activity in data set [2] was 1.1.

With `O=C(O[C@@H]1Cc2c(O)cc(O)cc2O[C@@H]1c1cc(O)c(O)c(O)c1)c1cc(O)c(O)c(O)c1` [EPIGALOCATECHIN GALLATE], the Activity in data set [1] came to 4.8.

Regarding `O=C(O)C1=C/C(=C\C=N/CCc2ccc(O)cc2)C[C@@H](C(=O)O)N1`, the Activity in data set [1] amounted to 4; in data set [2], 1.1.

`O=C(O)C1=C/C(=C\C=N/CCc2cccc(O)c2)C[C@@H](C(=O)O)N1`: the Activity came out at 4.1 in data set [1] and 2.7 in data set [2].

On to `O=C(O)C1=C/C(=C\C=N/CCc2ccc(O)c(O)c2)C[C@@H](C(=O)O)N1`, for which, in data set [2], the Activity was determined as 3.3.

With `Oc1ccc(/C=C/c2cc(O)cc(O)c2)cc1` [RESVERATROL], the Activity in data set [1] is given as 2.7.
